One assay deals with T1, FLT3 (Homo sapiens, UniProt P36888).
T1 sequence (P36888 27-993): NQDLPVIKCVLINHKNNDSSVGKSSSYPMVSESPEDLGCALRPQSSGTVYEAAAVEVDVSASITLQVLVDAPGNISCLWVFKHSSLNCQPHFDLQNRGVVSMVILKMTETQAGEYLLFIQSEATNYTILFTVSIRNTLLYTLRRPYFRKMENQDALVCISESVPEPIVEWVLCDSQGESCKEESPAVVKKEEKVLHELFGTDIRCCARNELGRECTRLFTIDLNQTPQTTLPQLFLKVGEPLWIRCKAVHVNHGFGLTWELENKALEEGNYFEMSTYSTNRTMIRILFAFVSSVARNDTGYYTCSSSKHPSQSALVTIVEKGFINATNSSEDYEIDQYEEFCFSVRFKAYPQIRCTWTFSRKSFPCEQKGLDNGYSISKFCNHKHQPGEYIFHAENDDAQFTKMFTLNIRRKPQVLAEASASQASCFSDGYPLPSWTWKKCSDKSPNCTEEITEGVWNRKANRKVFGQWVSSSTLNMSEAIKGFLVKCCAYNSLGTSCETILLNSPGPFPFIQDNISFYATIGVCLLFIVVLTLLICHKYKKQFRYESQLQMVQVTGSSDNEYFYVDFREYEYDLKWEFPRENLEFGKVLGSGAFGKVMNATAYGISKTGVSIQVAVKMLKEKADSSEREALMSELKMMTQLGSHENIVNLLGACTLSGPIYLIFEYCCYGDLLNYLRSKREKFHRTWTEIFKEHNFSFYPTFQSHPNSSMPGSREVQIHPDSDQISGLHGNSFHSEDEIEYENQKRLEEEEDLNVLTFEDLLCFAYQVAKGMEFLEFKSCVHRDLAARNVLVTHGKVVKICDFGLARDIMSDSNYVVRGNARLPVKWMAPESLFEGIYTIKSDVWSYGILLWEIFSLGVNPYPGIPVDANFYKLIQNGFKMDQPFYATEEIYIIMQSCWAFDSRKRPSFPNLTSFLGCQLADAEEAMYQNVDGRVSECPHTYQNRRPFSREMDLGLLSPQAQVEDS
Nature of the assay: TR-FRET kinase activity assay, FLT3. Type of assay: biochemical. The conditions noted are these: ATP at Km, 60 minutes. In a few lines:
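IC50s come from loss of TR-FRET between a Eu-labeled phospho-site antibody and fluorescent tyrosine-phosphorylated peptide. Kinase reactions, initiated with Km ATP, ran 60 min at RT at pH 7.5 before EDTA quench.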
(In TR-FRET formats the signal depends on donor and acceptor labels being close together.)

Another assay addresses T2, TYRO3 (Homo sapiens, UniProt Q06418).
T2 sequence (Q06418 41-890): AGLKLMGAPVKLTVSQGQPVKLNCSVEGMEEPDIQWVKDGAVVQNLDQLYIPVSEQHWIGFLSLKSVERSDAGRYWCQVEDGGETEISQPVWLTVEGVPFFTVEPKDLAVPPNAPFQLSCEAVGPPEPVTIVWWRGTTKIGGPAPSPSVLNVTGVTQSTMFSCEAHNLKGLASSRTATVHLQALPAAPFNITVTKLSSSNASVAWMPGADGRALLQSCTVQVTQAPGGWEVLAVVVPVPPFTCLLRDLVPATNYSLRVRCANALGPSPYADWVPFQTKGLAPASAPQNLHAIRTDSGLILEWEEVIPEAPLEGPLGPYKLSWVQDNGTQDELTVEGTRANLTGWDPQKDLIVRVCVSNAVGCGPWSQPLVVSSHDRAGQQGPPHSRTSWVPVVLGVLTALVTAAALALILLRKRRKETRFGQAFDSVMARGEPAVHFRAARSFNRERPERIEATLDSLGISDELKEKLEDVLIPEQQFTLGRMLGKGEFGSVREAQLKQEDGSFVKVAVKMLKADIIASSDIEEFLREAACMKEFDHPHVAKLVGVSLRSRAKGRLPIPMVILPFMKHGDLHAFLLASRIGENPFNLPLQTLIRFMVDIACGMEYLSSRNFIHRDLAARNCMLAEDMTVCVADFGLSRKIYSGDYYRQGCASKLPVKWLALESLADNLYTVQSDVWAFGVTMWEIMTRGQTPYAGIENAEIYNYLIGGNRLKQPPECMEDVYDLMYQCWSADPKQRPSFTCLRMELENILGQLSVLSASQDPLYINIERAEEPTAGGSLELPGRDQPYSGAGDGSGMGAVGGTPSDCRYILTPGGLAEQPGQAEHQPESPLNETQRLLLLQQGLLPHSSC
The assay is described as follows: TR-FRET kinase activity assay, TYRO3. Type of assay: biochemical. The conditions noted are these: ATP at Km, 60 minutes. As for the experimental part:
IC50 values for compound inhibition of AXL, FLT3, MERTK and TYRO3 activity were determined using a TR-FRET activity assay. A peptide substrate with a fluorescent label is phosphorylated on a tyrosine by each enzyme, where the now phosphorylated product is bound by a Europium-labeled antibody specific to that phosphorylation site. The proximity between the antibody and the substrate gives a signal known as TR-FRET. As the enzyme is inhibited by compound, less phosphorylated peptide product is made, causing a decrease in overall signal.
Activity assays were performed in a 384-well, small volume, black microplates in an active enzyme volume of 10 uL and final developed volume of 20 uL. Final assay conditions are 50 mM HEPES pH 7.5, 10 mM MgCl2, 1 mM EGTA, 0.01% Brij 35 and 1 mM DTT, all at RT. Enzyme, substrate-labeled peptide and compound are mixed, and then the reaction is initiated with the addition of ATP at Km concentration for each enzyme. The reaction is allowed to run 60 minutes and then quenched with a 12.5 mM EDTA (ethylenediamine tetraacetic acid) solution. The plate is then developed with the addition of Europium-labeled antibody for a final volume of 20 uL and is then incubated for 30 minutes in darkness. Plates are read in a PHERASTAR® plate reader. Data are analyzed in GraphPad PRISM.

With `CC[C@H](C)Nc1ncc2c(=O)n(CC34CCC(N)(CC3)CC4)cc([C@H]3CC[C@H](O)CC3)c2n1` [Compound 251], the 50% inhibitory concentration (IC50) (as a rule, the concentration at which inhibition is half-maximal) at FLT3 was 1000 to 10000 nM; at TYRO3 it was no more than 100 nM.

Consider `CCOc1ncc(CC2CCN(C)CC2)c2nc(N[C@@H](C)CC)ncc12` [Compound 253], for which the half-maximal inhibitory concentration (IC50) on FLT3 lay within 1000 to 10000 nM; at TYRO3, 100 to 1000 nM.

As for `CCOc1ncc(CC2CCN(C(=O)OC(C)(C)C)CC2)c2nc(N[C@@H](C)CC)ncc12` [Compound 254], the IC50 at FLT3 and against TYRO3 was 1000 to 10000 nM in each case.

On to `CC[C@H](C)Nc1ncc2c(C)ncc([C@H]3CC[C@H](O)CC3)c2n1` [Compound 255], for which the values for the half-maximal inhibitory concentration (IC50) against FLT3 and against TYRO3 were 1000 to 10000 nM and no more than 100 nM, respectively.

Regarding `CC[C@H](C)Nc1ncc2c(OCC34CCC(O)(CC3)CC4)ncc([C@H]3CC[C@H](O)CC3)c2n1` [Compound 256], the IC50 was in the range of 1000 to 10000 nM on FLT3 and 100 to 1000 nM at TYRO3.

For `CC[C@H](C)Nc1ncc2c(=O)n(CC34CCC(O)(CC3)CC4)cc([C@H]3CC[C@H](O)CC3)c2n1` [Compound 257], the concentration for half-maximal inhibition (IC50) on FLT3 is 1000 to 10000 nM; against TYRO3 it was no more than 100 nM.

As for `COC[C@H](C)Nc1ncc2c(OC3CC(C)(C)N(C)C(C)(C)C3)ncc([C@H]3CC[C@H](O)CC3)c2n1` [Compound 259], the 50% inhibitory concentration (IC50) against FLT3 was 1000 to 10000 nM; against TYRO3, no more than 100 nM.

For `COC[C@H](C)Nc1ncc2c(O[C@H]3CC[C@H](O)CC3)ncc([C@H]3CC[C@H](O)CC3)c2n1` [Compound 260], the half-maximal inhibitory concentration (IC50) is 1000 to 10000 nM on FLT3 and no more than 100 nM against TYRO3.

For `CC[C@H](C)Nc1ncc2c(O[C@H]3CC[C@H](C(C)(C)O)CC3)ncc([C@H]3CC[C@H](O)CC3)c2n1` [Compound 261], the IC50 against FLT3 and against TYRO3 was 100 to 1000 nM each time.

Regarding `O[C@H]1CC[C@H](c2cnc(OC3CCNCC3)c3cnc(Nc4ccccc4F)nc32)CC1` [Compound 262], the IC50 was 100 to 1000 nM on FLT3 and no more than 100 nM against TYRO3.

For `CC[C@H](C)Nc1ncc2c(=O)n(C[C@@H]3COCCN3C)cc([C@H]3CC[C@H](O)CC3)c2n1` [Compound 263], the IC50 against FLT3 lay in the range of 1000 to 10000 nM; on TYRO3 it was 100 to 1000 nM.

`CC[C@H](C)Nc1ncc2c(=O)n(CC34CCC(N(C)C)(CC3)CC4)cc([C@H]3CC[C@H](O)CC3)c2n1` [Compound 264]: the values for the half-maximal inhibitory concentration (IC50) against FLT3 and on TYRO3 were 1000 to 10000 nM and no more than 100 nM, respectively.

Consider `CC[C@H](C)Nc1ncc2c(=O)n(C[C@H]3COCCN3C)cc([C@H]3CC[C@H](O)CC3)c2n1` [Compound 265], for which the IC50 lay within 1000 to 10000 nM against FLT3 and 100 to 1000 nM at TYRO3.

On to `CC[C@H](C)Nc1ncc2c(=O)n([C@H]3CC[C@H](N(C)C)C3)cc([C@H]3CC[C@H](O)CC3)c2n1` [Compound 266], for which the half-maximal inhibitory concentration (IC50) on FLT3 is 1000 to 10000 nM; against TYRO3, no more than 100 nM.

`CC[C@H](C)Nc1ncc2c(O[C@H]3CC[C@H](N(C)C)C3)ncc([C@H]3CC[C@H](O)CC3)c2n1` [Compound 267]: the IC50 against FLT3 is 100 to 1000 nM; against TYRO3, no more than 100 nM.

For the compound `CC(C)(C)Nc1ncc2c(OC3CCNCC3)ncc([C@H]3CC[C@H](O)CC3)c2n1` [Compound 268], the half-maximal inhibitory concentration (IC50) lay within 1000 to 10000 nM on FLT3 and 100 to 1000 nM at TYRO3.

As for `O[C@H]1CC[C@H](c2cnc(OC3CCNCC3)c3cnc(Nc4ccc(F)cc4)nc32)CC1` [Compound 269], the concentration for half-maximal inhibition (IC50) against FLT3 and against TYRO3 was no more than 100 nM throughout.

Consider `O[C@H]1CC[C@H](c2cnc(OC3CCNCC3)c3cnc(Nc4cccc(F)c4)nc32)CC1` [Compound 270], for which the concentration for half-maximal inhibition (IC50) at FLT3 and against TYRO3 was no more than 100 nM each time.

In the case of `CC[C@H](C)Nc1ncc2c(=O)n(-c3ccc(N)cc3)cc([C@H]3CC[C@H](O)CC3)c2n1` [Compound 271], the concentration for half-maximal inhibition (IC50) on FLT3 fell in the range of 1000 to 10000 nM; against TYRO3, 100 to 1000 nM.

In the case of `COC(=O)c1ccc(Nc2ncc3c(OC4CCNCC4)ncc([C@H]4CC[C@H](O)CC4)c3n2)cc1` [Compound 272], the concentration for half-maximal inhibition (IC50) at FLT3 is 100 to 1000 nM; at TYRO3, no more than 100 nM.

Consider `CCOc1ncc([C@H]2CC[C@H](O)CC2)c2nc(N[C@@H](C)COC)ncc12` [Compound 273], for which the half-maximal inhibitory concentration (IC50) against FLT3 was in the range of 1000 to 10000 nM; against TYRO3, 100 to 1000 nM.

Consider `CC(C)Nc1ncc2c(OC3CCOCC3)ncc(-c3cccc(CC#N)c3)c2n1` [Compound 274], for which the IC50 on FLT3 lay within 1000 to 10000 nM; against TYRO3 it was 100 to 1000 nM.

For `CC[C@H](C)Nc1ncc2c(OC3C[C@@H](C)O[C@@H](C)C3)ncc([C@H]3CC[C@H](O)CC3)c2n1` (some centres unmarked) [Compound 275], the IC50 at FLT3 lay within 1000 to 10000 nM; on TYRO3, 100 to 1000 nM.

Regarding `CC(C)Nc1ncc2c(OC3CCOCC3)ncc(-c3cccc(CC(=O)O)c3)c2n1` [Compound 276], the 50% inhibitory concentration (IC50) fell in the range of 1000 to 10000 nM at FLT3 and 100 to 1000 nM against TYRO3.

For the compound `O[C@H]1CC[C@H](c2cnc(OC3CCOCC3)c3cnc(N[C@H]4CCNC4)nc32)CC1` [Compound 277], the half-inhibitory concentration (IC50) against FLT3 and on TYRO3 was 1000 to 10000 nM throughout.

Source of the values: US20200291018A1, “TAM KINASE INHIBITORS” (SYROS PHARMACEUTICALS, INC., priority 2017, published 2020).
